From US3931244A, “Thioureas” (John Wyeth & Brother Limited, priority 1973, dated 1976)

System: appetite
Assay: Anorectic test: length of spaghetti eaten by starved mice during a two hour test period
Type: in vivo
Settings: 100 mg/kg per os, dosed one hour before test, overnight-starved male mice, (mean length eaten by control - test)/control × 100
Procedure: The compounds of the invention may be tested for anorectic properties by the following procedure:
Groups of 8 or 10 male mice weighing 22-24 grams are starved overnight, although access to water is not restricted. The animals are dosed with the test drug or vehicle alone (control) one hour before they are placed individually into glass jars. The jars (100 mm diameter × 80 mm high) have lids fitted with a glass tube to accommodate a stick of spaghetti of approximate length of 450 mm. The glass tube is arranged such that only 5 mm of spaghetti is exposed for eating by the mouse. The length of spaghetti eaten during a two hour test period is indicative of the appetite of the animal.
When tested by this procedure at a dose of 100 mg/kg per os the following results were obtained: […]

Compound	% Inhibition of appetite
C[C@@H](Cc1ccccc1)NC(=S)NC(=O)c1ccccc1 [Example 1, N-Benzoyl-N'-(1-methyl-2-phenyl)ethylthiourea]	90%
O=C(NC(=S)NCCc1ccccc1)c1ccccc1 [Example 2, N-Benzoyl-N'-phenthylthiourea]	49%
COc1ccc(C(=O)NC(=S)N[C@@H](C)Cc2ccccc2)cc1 [Example 3, N-(4-Methoxybenzoyl)-N'-(1-methyl-2-phenyl)ethylthiourea]	52%
C[C@@H](Cc1ccccc1)NC(=S)NC(=O)c1cccc(C(F)(F)F)c1 [Example 4, N-(3-Trifluoromethylbenzoyl)-N'-(1-methyl-2-phenyl)-ethylthiourea]	49%
C[C@@H](Cc1ccccc1)NC(=S)NC(=O)c1ccc(Cl)cc1 [Example 5, N-(4-Chlorobenzoyl)-N'-(1-methyl-2-phenyl)ethylthiourea]	41%
C[C@@H](Cc1ccccc1)NC(=S)NC(=O)c1ccco1 [Example 6]	40%
Cc1cccc(C(=O)NC(=S)N[C@@H](C)Cc2ccccc2)c1 [Example 7, N-(3-Toluoyl)-N'-(1-methyl-2-phenyl)ethylthiourea]	53%
